In brackets after ≈: the same amount, converted by molar mass.
Assays:
MGC-803 [1] = experiment: Cell cycle arrest in human MGC803 cells assessed as accumulation at G2/M phase at 8 uM after 24 hrs by propidium iodide staining-based flow cytometry (reference value: 20.41%); assay type: functional
MGC-803 [2] = experiment: Cell cycle arrest in human MGC803 cells assessed as accumulation at G2/M phase at 4 uM after 24 hrs by propidium iodide staining-based flow cytometry (reference value: 20.41%); assay type: functional
MGC-803 [3] = experiment: Cell cycle arrest in human MGC803 cells assessed as accumulation at G2/M phase at 2 uM after 24 hrs by propidium iodide staining-based flow cytometry (reference value: 20.41%); assay type: functional
MGC-803 [4] = experiment: Cell cycle arrest in human MGC803 cells assessed as accumulation at S phase at 8 uM after 24 hrs by propidium iodide staining-based flow cytometry (reference value: 26.67%); assay type: functional
MGC-803 [5] = experiment: Cell cycle arrest in human MGC803 cells assessed as accumulation at S phase at 4 uM after 24 hrs by propidium iodide staining-based flow cytometry (reference value: 26.67%); assay type: functional
MGC-803 [6] = experiment: Cell cycle arrest in human MGC803 cells assessed as accumulation at S phase at 2 uM after 24 hrs by propidium iodide staining-based flow cytometry (reference value: 26.67%); assay type: functional
MGC-803 [7] = experiment: Cell cycle arrest in human MGC803 cells assessed as accumulation at G0/G1 phase at 8 uM after 24 hrs by propidium iodide staining-based flow cytometry (reference value: 43.45%); assay type: functional
MGC-803 [8] = experiment: Cell cycle arrest in human MGC803 cells assessed as accumulation at G0/G1 phase at 4 uM after 24 hrs by propidium iodide staining-based flow cytometry (reference value: 43.45%); assay type: functional
MGC-803 [9] = experiment: Cell cycle arrest in human MGC803 cells assessed as accumulation at G0/G1 phase at 2 uM after 24 hrs by propidium iodide staining-based flow cytometry (reference value: 43.45%); assay type: functional
MGC-803 [10] = experiment: Cell cycle arrest in human MGC803 cells assessed as accumulation at G2/M phase after 24 hrs by propidium iodide staining-based flow cytometry; assay type: functional
MGC-803 [11] = experiment: Induction of apoptosis in human MGC803 cells assessed as necrotic cells at 8 uM after 24 hrs by AnnexinV/FITC-propidium iodide staining-based flow cytometry (reference value: 0.2%); assay type: functional
MGC-803 [12] = experiment: Induction of apoptosis in human MGC803 cells assessed as necrotic cells at 4 uM after 24 hrs by AnnexinV/FITC-propidium iodide staining-based flow cytometry (reference value: 0.2%); assay type: functional
MGC-803 [13] = experiment: Induction of apoptosis in human MGC803 cells assessed as necrotic cells at 2 uM after 24 hrs by AnnexinV/FITC-propidium iodide staining-based flow cytometry (reference value: 0.2%); assay type: functional
MGC-803 [14] = experiment: Induction of apoptosis in human MGC803 cells assessed as late apoptotic cells at 8 uM after 24 hrs by AnnexinV/FITC-propidium iodide staining-based flow cytometry (reference value: 1.2%); assay type: functional
MGC-803 [15] = experiment: Induction of apoptosis in human MGC803 cells assessed as late apoptotic cells at 4 uM after 24 hrs by AnnexinV/FITC-propidium iodide staining-based flow cytometry (reference value: 1.2%); assay type: functional
MGC-803 [16] = experiment: Induction of apoptosis in human MGC803 cells assessed as late apoptotic cells at 2 uM after 24 hrs by AnnexinV/FITC-propidium iodide staining-based flow cytometry (reference value: 1.2%); assay type: functional
MGC-803 [17] = experiment: Induction of apoptosis in human MGC803 cells assessed as early apoptotic cells at 8 uM after 24 hrs by AnnexinV/FITC-propidium iodide staining-based flow cytometry (reference value: 8.9%); assay type: functional
MGC-803 [18] = experiment: Induction of apoptosis in human MGC803 cells assessed as early apoptotic cells at 4 uM after 24 hrs by AnnexinV/FITC-propidium iodide staining-based flow cytometry (reference value: 8.9%); assay type: functional
MGC-803 [19] = experiment: Induction of apoptosis in human MGC803 cells assessed as early apoptotic cells at 2 uM after 24 hrs by AnnexinV/FITC-propidium iodide staining-based flow cytometry (reference value: 8.9%); assay type: functional
MGC-803 [20] = experiment: Induction of apoptosis in human MGC803 cells assessed as viable cells at 8 uM after 24 hrs by AnnexinV/FITC-propidium iodide staining-based flow cytometry (reference value: 89.6%); assay type: functional; conditions: MGC-803, 24 h, read-out: Activity
MGC-803 [21] = experiment: Induction of apoptosis in human MGC803 cells assessed as viable cells at 4 uM after 24 hrs by AnnexinV/FITC-propidium iodide staining-based flow cytometry (reference value: 89.6%); assay type: functional; conditions: MGC-803, 24 h, read-out: Activity
MGC-803 [22] = experiment: Induction of apoptosis in human MGC803 cells assessed as viable cells at 2 uM after 24 hrs by AnnexinV/FITC-propidium iodide staining-based flow cytometry (reference value: 89.6%); assay type: functional; conditions: MGC-803, 24 h, read-out: Activity
SMMC-7721 = experiment: Cytotoxicity against human SMMC7721 cells after 72 hrs by MTT assay; assay type: functional, cell-based; conditions: SMMC-7721, 72 h
PC-3 = experiment: Cytotoxicity against human PC3 cells after 72 hrs by MTT assay; assay type: functional, cell-based; conditions: PC-3, 72 h
MGC-803 [23] = experiment: Cytotoxicity against human MGC803 cells after 72 hrs by MTT assay; assay type: functional, cell-based; conditions: MGC-803, 72 h
[24] = Cytotoxicity against human EC109 cells after 72 hrs by MTT assay; assay type: functional, cell-based; conditions: ECa-109, 72 h
MCF7 = experiment: cells; conditions: Homo sapiens, MCF7, 72 h
Description: Cytotoxicity against human MCF7 cells after 72 hrs by MTT assay

[25] = Cytotoxicity against human MEL28 cells; assay type: functional, cell-based; conditions: SK-MEL-28
A549 = experiment: Cytotoxicity against human A549 cells; assay type: functional, cell-based
HT-29 = experiment: Cytotoxicity against human HT-29 cells; assay type: functional, cell-based
P388 = experiment: Cytotoxicity against mouse P388 cells; assay type: functional, cell-based

`CC(=O)O[C@H]1CC[C@@]2(C)C(=CC[C@@H]3[C@@H]2CC[C@]2(C)C(=C(/C#N)C(N)=O)/C(=C/c4ccc(Cl)cc4)C[C@@H]32)C1` gave an Activity (MGC-803 [1]) of 56.91%, an Activity (MGC-803 [2]) of 49.43% and an Activity (MGC-803 [3]) of 33.68%. For the same molecule, the Activity (MGC-803 [4]) was 19.09%, the Activity (MGC-803 [5]) was 19.94% and the Activity (MGC-803 [6]) was 15.68%. The Activity (MGC-803 [7]) was 21.6%, the Activity (MGC-803 [8]) was 28.84% and the Activity (MGC-803 [9]) was 48.61%. The Activity (MGC-803 [10]) was “Dose-dependent effect”, the Activity (MGC-803 [11]) was 0.1% and the Activity (MGC-803 [12]) was 2%. The Activity (MGC-803 [13]) was 0.5%, the Activity (MGC-803 [14]) was 17.1% and the Activity (MGC-803 [15]) was 9.4%. For the same molecule, the Activity (MGC-803 [16]) was 4.4%, the Activity (MGC-803 [17]) was 80.9% and the Activity (MGC-803 [18]) was 35.9%. It also gave an Activity (MGC-803 [19]) of 18.7%, a viability at 8 µM (MGC-803 [20]) of 1.9% and a viability at 4 µM (MGC-803 [21]) of 52.7%. The viability at 2 µM (MGC-803 [22]) was 76.3%, the IC50 (SMMC-7721) was 3.9 µM and the IC50 (PC-3) was 11.5 µM. It also gave an IC50 (MGC-803 [23]) of 1.54 µM, an IC50 [24] of 5.56 µM and an IC50 (MCF7) of 3.85 µM.

Molecule `C=C1C[C@@H]2C/C=C/C(=O)C/C(C)=C\C=C\C(=O)O[C@H]([C@H](O)NC(=O)/C=C\C=C\C)C/C(C)=C/[C@H](C1)O2` [ZAMPANOLIDE] has an IC50 [25] of 1 ng/mL (≈ 2.02 nM), an IC50 (A549) of 1 ng/mL (≈ 2.02 nM) and an IC50 (HT-29) of 1 ng/mL (≈ 2.02 nM). It also gave an IC50 (P388) of 1 ng/mL (≈ 2.02 nM).

Reference: ChEMBL document CHEMBL2413073, “Efficient construction of novel D-ring modified steroidal dienamides and their cytotoxic activities” (Eur J Med Chem, 2013)
